Test system: Human patients with short bowel syndrome
Assay: Example 2: liver biomarkers (albumin, gamma glutamyl transferase, total bilirubin, ALT, AST, ALP) in short bowel syndrome patients, every four weeks for 24 weeks
Assay type: in vivo
Settings: 0.05 mg/kg/d
Method: To further confirm the results of Example 1, a further study was conducted involving more individuals and additional diagnostic biomarkers. Human patients with short bowel syndrome were divided into two groups: a control group (43 total individuals) to receive placebo, and an experimental group (42 total individuals) to receive teduglutide at 0.05 mg/kg/day throughout the study. Patients were treated by subcutaneous injection of placebo or the appropriate dose of teduglutide. Known biomarkers of liver function were monitored every four weeks, for 24 weeks. The liver biomarkers tested included albumin, gamma glutamyl transferase, total bilirubin, ALT and AST and ALP. Before administration of placebo or teduglutide, diagnostic biomarker levels were tested to establish a baseline for each individual.
To determine the effect of GLP-2 on the levels of the diagnostic biomarkers, the average level of each biomarker was measured for the placebo and teduglutide treated groups for each visit. Furthermore, the average change from baseline was calculated using the established baseline values. For FIGS. 17-28, p-values were calculated using the t-test.
P values are provided, which were calculated for each distribution of biomarker changes for each week using the chi-squared test.

CC[C@H](C)[C@H](NC(=O)[C@H](Cc1ccccc1)NC(=O)[C@H](CC(=O)O)NC(=O)[C@H](CCCNC(=N)N)NC(=O)[C@H](C)NC(=O)[C@H](C)NC(=O)[C@H](CC(C)C)NC(=O)[C@H](CC(N)=O)NC(=O)[C@H](CC(=O)O)NC(=O)[C@H](CC(C)C)NC(=O)[C@@H](NC(=O)[C@@H](NC(=O)[C@H](CC(N)=O)NC(=O)[C@H](CCSC)NC(=O)[C@H](CCC(=O)O)NC(=O)[C@H](CC(=O)O)NC(=O)[C@H](CO)NC(=O)[C@H](Cc1ccccc1)NC(=O)[C@H](CO)NC(=O)CNC(=O)[C@H](CC(=O)O)NC(=O)CNC(=O)[C@@H](N)Cc1c[nH]cn1)[C@@H](C)O)[C@@H](C)CC)C(=O)N[C@@H](CC(N)=O)C(=O)N[C@@H](Cc1c[nH]c2ccccc12)C(=O)N[C@@H](CC(C)C)C(=O)N[C@H](C(=O)N[C@@H](CCC(N)=O)C(=O)N[C@H](C(=O)N[C@@H](CCCCN)C(=O)N[C@H](C(=O)N[C@H](C(=O)N[C@@H](CC(=O)O)C(=O)O)[C@@H](C)O)[C@@H](C)CC)[C@@H](C)O)[C@@H](C)CC [teduglutide]
Gamma Glutamyl Transferase Change from Baseline, Median (Week 2, n=40): 2.5 U/L | Gamma Glutamyl Transferase Observed Value, Mean (Week 2, n=40): 84.6 U/L | Gamma Glutamyl Transferase Observed Value, Median (Week 2, n=40): 52.5 U/L | ALT >10% decrease from Baseline, % of subjects (Week 4, m=40): (65.0%) | ALT >10% decrease from Baseline, n subjects (Week 4, m=40): 26 | ALT >10% increase from Baseline, % of subjects (Week 4, m=40): (15.0%) | ALT >10% increase from Baseline, n subjects (Week 4, m=40): 6 | ALT Within 10% of Baseline, % of subjects (Week 4, m=40): (20.0%) | ALT Within 10% of Baseline, n subjects (Week 4, m=40): 8 | AST >10% decrease from Baseline, % of subjects (Week 4, m=40): (65.0%) | AST >10% decrease from Baseline, n subjects (Week 4, m=40): 26 | AST >10% increase from Baseline, % of subjects (Week 4, m=40): (20.0%) | AST >10% increase from Baseline, n subjects (Week 4, m=40): 8 | AST Within 10% of Baseline, % of subjects (Week 4, m=40): (15.0%) | AST Within 10% of Baseline, n subjects (Week 4, m=40): 6 | Albumin >10% decrease from Baseline, % of subjects (Week 4, m=40): (7.5%) | Albumin >10% decrease from Baseline, n subjects (Week 4, m=40): 3 | Albumin >10% increase from Baseline, % of subjects (Week 4, m=40): (5.0%) | Albumin >10% increase from Baseline, n subjects (Week 4, m=40): 2 | Albumin Within 10% of Baseline, % of subjects (Week 4, m=40): (87.5%) | Albumin Within 10% of Baseline, n subjects (Week 4, m=40): 35 | Alkaline Phosphatase >10% decrease from Baseline, % of subjects (Week 4, m=40): (55.0%) | Alkaline Phosphatase >10% decrease from Baseline, n subjects (Week 4, m=40): 22 | Alkaline Phosphatase >10% increase from Baseline, % of subjects (Week 4, m=40): (5.0%) | Alkaline Phosphatase >10% increase from Baseline, n subjects (Week 4, m=40): 2 | Alkaline Phosphatase Within 10% of Baseline, % of subjects (Week 4, m=40): (40.0%) | Alkaline Phosphatase Within 10% of Baseline, n subjects (Week 4, m=40): 16 | Bilirubin >10% decrease from Baseline, % of subjects (Week 4, m=40): (47.5%) | Bilirubin >10% decrease from Baseline, n subjects (Week 4, m=40): 19 | Bilirubin >10% increase from Baseline, % of subjects (Week 4, m=40): (35.0%) | Bilirubin >10% increase from Baseline, n subjects (Week 4, m=40): 14 | Bilirubin Within 10% of Baseline, % of subjects (Week 4, m=40): (17.5%) | Bilirubin Within 10% of Baseline, n subjects (Week 4, m=40): 7 | ALKALINE PHOSPHATASE Change from Baseline, Median (Week 4, n=40): −15.5 U/L | ALT Change from Baseline, Mean (Week 4, n=40): −9.2 U/L | ALT Change from Baseline, Median (Week 4, n=40): −7 U/L | ALT Observed Value, Mean (Week 4, n=40): 34.9 U/L | ALT Observed Value, Median (Week 4, n=40): 29 U/L | AST Change from Baseline, Mean (Week 4, n=40): −3.5 U/L | AST Change from Baseline, Median (Week 4, n=40): −5 U/L | AST Observed Value, Mean (Week 4, n=40): 29.1 U/L | AST Observed Value, Median (Week 4, n=40): 26.5 U/L | Albumin Change from Baseline, Mean (Week 4, n=40): -0.7 g/L | Albumin Change from Baseline, Median (Week 4, n=40): -1 g/L | Albumin Observed Value, Mean (Week 4, n=40): 41.7 g/L | Albumin Observed Value, Median (Week 4, n=40): 42 g/L | Alkaline Phosphatase Change from Baseline, Mean (Week 4, n=40): −20.5 U/L | Alkaline Phosphatase Observed Value, Mean (Week 4, n=40): 115.8 U/L | Alkaline Phosphatase Observed Value, Median (Week 4, n=40): 101 U/L | Bilirubin Change from Baseline, Mean (Week 4, n=40): -1.10 µmol/L | Bilirubin Change from Baseline, Median (Week 4, n=40): -1.5 µmol/L | Bilirubin Observed Value, Mean (Week 4, n=40): 11.31 µmol/L | Bilirubin Observed Value, Median (Week 4, n=40): 9.55 µmol/L | Gamma Glutamyl Transferase Change from Baseline, Mean (Week 4, n=40): 1.7 U/L

— patent US20130072430A1, “METHODS FOR TREATMENT OR PROPHYLAXIS OF KIDNEY OR LIVER DYSFUNCTION” (NPS PHARMACEUTICALS, INC., priority 2010, published 2013)
